Our source for the IC50 values is patent US7816353B2 (Exelixis, Inc., priority 2003, dated 2010).

Test [1] addresses T1, p70S6K (Homo sapiens, UniProt P23443, T412E).
T1 construct: human p70S6 kinase domain residues 1-421, containing a T412E mutation; made in house
As to the kind of experiment: p70S6 Kinase Assay (Luciferase-Coupled Chemiluminescent Kinase assay, LCCA). The note with it: human p70S6 kinase domain residues 1-421, T412E; 5 μM ATP; read-out: p70S6K IC50. It is filed as biochemical. In a few lines: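 Luciferase-coupled chemiluminescence measured percent ATP remaining after the 2 h kinase reaction at ambient temperature, with ATP near the kinase's KM. Ten inhibitor concentrations were tested. IC50 was obtained from a Hill-equation fit.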

For test [2], the target named is T2, Akt1 (Homo sapiens, UniProt P31749).
T2 construct: made in house
T2 sequence (P31749 144-480): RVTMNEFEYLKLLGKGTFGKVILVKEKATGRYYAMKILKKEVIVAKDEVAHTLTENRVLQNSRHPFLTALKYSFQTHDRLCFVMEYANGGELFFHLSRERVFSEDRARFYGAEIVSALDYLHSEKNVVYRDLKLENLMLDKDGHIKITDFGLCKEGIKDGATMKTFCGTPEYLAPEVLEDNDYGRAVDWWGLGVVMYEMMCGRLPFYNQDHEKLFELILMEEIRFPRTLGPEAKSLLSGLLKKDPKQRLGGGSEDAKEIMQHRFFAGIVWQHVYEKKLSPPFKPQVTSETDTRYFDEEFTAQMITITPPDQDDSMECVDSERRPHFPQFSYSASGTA
As to the kind of experiment: Akt1 Kinase Assay (Luciferase-Coupled Chemiluminescent Kinase assay, LCCA). It counts as biochemical. The note with it: human Akt1 kinase domain residues R144-A480, activated with PDK1; 1 μM ATP; read-out: Akt-1 IC50. The method, then:
Kinase activity and compound inhibition are investigated using one or more of the three assay formats described below. The ATP concentrations for each assay are selected to be close to the Michaelis-Menten constant (KM) for each individual kinase. Dose-response experiments are performed at 10 different inhibitor concentrations in a 384-well plate format. The data are fitted to four-parameter equation (2) below; where Y is the observed signal, X is the inhibitor concentration, Min is the background signal in the absence of enzyme (0% enzyme activity), Max is the signal in the absence of inhibitor (100% enzyme activity), IC50 is the inhibitor concentration at 50% enzyme inhibition and H represents the empirical Hill's slope to measure the cooperativity. Typically H is close to unity. Y=Min+(Max−Min)/(1+(X/IC50)^H) Equation (2) p70S6 Kinase Assay
Biochemical activity of Akt1 kinase was assessed using a Luciferase-Coupled Chemiluminescent Kinase assay (LCCA) format. Kinase activity was measured as the percent ATP remaining following the kinase reaction. Remaining ATP was detected by luciferase-luciferin-coupled chemiluminescence. Specifically, the reaction was initiated by mixing test compounds, 1 μM ATP, 5 μM crosstide peptide and 1.3 nM Akt1 (baculovirus expressed human Akt1 kinase domain residues R144-A480, activated with PDK1) in a 20 uL assay buffer (20 mM Tris-HCL pH 7.5, 10 mM MgCl2, 0.01% Triton X-100, 1 mM DTT, 3 mM MnCl2). The mixture is incubated at ambient temperature for 3 hours after which 20 μL luciferase-luciferin mix is added and the chemiluminescent signal read using a Wallac Victor2 reader. The luciferase-luciferin mix consists of 50 mM HEPES, pH 7.8, 8.5 μg/mL oxalic acid (pH 7.8), 5 (or 50) mM DTT, 0.4% Triton X-100, 0.25 mg/mL coenzyme A, 63 uM AMP, 28 μg/mL luciferin and 40,000 units/mL luciferase.

As usually defined, the IC50 is the point on the concentration scale where inhibition reaches its midpoint.

The structures appear in SMILES notation. Some results are limits rather than exact numbers.

T1 sequence (P23443 1-421 T412E): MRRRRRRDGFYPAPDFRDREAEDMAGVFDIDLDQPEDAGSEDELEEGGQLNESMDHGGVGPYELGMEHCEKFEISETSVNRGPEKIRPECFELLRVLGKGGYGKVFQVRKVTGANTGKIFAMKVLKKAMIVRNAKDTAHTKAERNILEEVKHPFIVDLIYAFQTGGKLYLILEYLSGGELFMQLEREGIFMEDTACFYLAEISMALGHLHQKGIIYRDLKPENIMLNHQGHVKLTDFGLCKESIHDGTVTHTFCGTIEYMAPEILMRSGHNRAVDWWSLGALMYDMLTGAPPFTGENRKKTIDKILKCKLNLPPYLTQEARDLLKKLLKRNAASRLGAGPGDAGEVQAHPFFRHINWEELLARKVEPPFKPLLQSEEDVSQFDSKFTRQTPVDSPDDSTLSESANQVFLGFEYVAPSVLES

Take `CSc1ncc(C#N)c(NCC(=O)Nc2cccc(C(F)(F)F)c2)n1` [Example 100, N^2-[5-cyano-2-(methylthio)pyrimidin-4-yl]-N-[3-(trifluoromethyl)phenyl]glycinamide]: the IC50 in test [1] and in test [2] was more than 2000 nM in each case.

As to `Nc1nc(Cl)cc(SCC(=O)Nc2cccc(C(F)(F)F)c2)n1`, the concentration for half-maximal inhibition (IC50) in test [1] is 50 to 500 nM; in test [2], more than 2000 nM.

For the molecule `Nc1nc(Cl)c(C=O)c(SCC(=O)Nc2cccc(C(F)(F)F)c2)n1` [Example 43, 2-[(2-amino-6-chloro-5-formylpyrimidin-4-yl)thio]-N-[3-(trifluoromethyl)phenyl]acetamide], the IC50 is 50 to 500 nM in test [1] and more than 2000 nM in test [2].

For the molecule `CCOc1nc(N)nc(N[C@@H](CCCN)C(=O)Nc2cccc(C(F)(F)F)c2)c1C#N` [Example 148, N~2~-[2-amino-5-cyano-6-(ethyloxy)pyrimidin-4-yl]-N-[3-(trifluoromethyl)phenyl]-L-omithinamide], the IC50 in test [1] is 500 to 2000 nM; in test [2], more than 2000 nM. The corresponding values for `COC(=O)c1cc(NC(=O)[C@H](C)Nc2nc(N)nc(SC)c2C#N)cc(C(F)(F)F)c1` [Example 112, methyl 3-({N-[2-amino-5-cyano-6-(methylthio)pyrimidin-4-yl]-L-alanyl}amino)-5-(trifluoromethyl)benzoate] are more than 2000 nM and more than 2000 nM. On to `CCOc1nc(N)nc(N(C)[C@@H](C)C(=O)Nc2cccc(Br)c2)c1C#N` [Example 174, N~2~-[2-amino-5-cyano-6-(ethyloxy)pyrimidin-4-yl]-N-(3-bromophenyl)-N~2~-methyl-L-alaninamide], for which, in test [1], the IC50 was more than 2000 nM.

As for `CCOc1nc(N)nc(N[C@@H](COCc2ccccc2)C(=O)Nc2cccc(C(F)(F)F)c2)c1C#N` [Example 151, N~2~-[2-amino-5-cyano-6-(ethyloxy)pyrimidin-4-yl]-O-(phenylmethyl)-N-[3-(trifluoromethyl)phenyl]-L-serinamide], the IC50 in test [1] was more than 2000 nM. On the same count and under the same terms, the same measure for `CSc1nc(N)nc(OC(C(=O)Nc2cccc(C(F)(F)F)c2)C(C)C)c1C#N` (stereo in doubt) [Example 70, (2S)-2-{[2-amino-5-cyano-6-(methylthio)pyrimidin-4-yl]oxy}-3-methyl-N-[3-(trifluoromethyl)phenyl]butanamide]: more than 2000 nM; for `CSc1nc(N)nc(OCC(=O)Nc2cccc(C(F)(F)F)c2)n1` [Example 47, 2-{[4-amino-6-(methylthio)-1,3,5-triazin-2-yl]oxy}-N-[3-(trifluoromethyl)phenyl]acetamide]: 50 to 500 nM.

As for `Nc1nc(SCC(=O)Nc2cccc(C(F)(F)F)c2)c(CO)c(Sc2ccccc2)n1` [Example 52], the IC50 in test [1] is 50 to 500 nM. The same measure, in the same setting: the same measure for `CSc1nc(N)nc(SCC(=O)Nc2cccc(C(F)(F)F)c2C)c1C#N` [Example 53, 2-{[2-amino-5-cyano-6-(methylthio)pyrimidin-4-yl]thio}-N-[2-methyl-3-(trifluoromethyl)phenyl]acetamide]: 500 to 2000 nM; for `CCOc1nc(N)nc(N(C)[C@@H](CCCCNC(=O)OCc2ccccc2)C(=O)Nc2cccc(C(F)(F)F)c2)c1C#N` [Example 162, N~2~-[2-amino-5-cyano-6-(ethyloxy)pyrimidin-4-yl]-N~2~-methyl-N~6~-{[(phenylmethyl)oxy]carbonyl}-N-[3-(trifluoromethyl)phenyl]-L-lysinamide]: more than 2000 nM. With `CCOc1nc(N)nc(N(C)[C@@H](C)C(=O)Nc2cccc(C(F)(F)F)c2)c1C#N` [Example 121, N^2-[2-amino-5-cyano-6-(ethyloxy)pyrimidin-4-yl]-N^2-methyl-N-[3-(trifluoromethyl)phenyl]-L-alaninamide], in test [1], the IC50 is more than 2000 nM. Still for that read-out and setting: the same measure for `CSc1nc(N)nc(NNC(=O)Nc2cccc(C(F)(F)F)c2)c1C#N` [Example 64, 2-[2-amino-5-cyano-6-(methylthio)pyrimidin-4-yl]-N-[3-(trifluoromethyl)phenyl]hydrazinecarboxamide]: 500 to 2000 nM; for `Nc1nc(SCC(=O)Nc2cccc(C(F)(F)F)c2)c(C=O)c(Sc2ccccc2)n1` [Example 51, 2-{[2-amino-5-formyl-6-(phenylthio)pyrimidin-4-yl]thio}-N-[3-(trifluoromethyl)phenyl]acetamide]: 50 to 500 nM. As for `CSc1nc(N)nc(N[C@@H](CCC(=O)O)C(=O)Nc2cccc(C(F)(F)F)c2)c1C#N` [Example 149, N~2~-[2-amino-5-cyano-6-(methylthio)pyrimidin-4-yl]-N-[3-(trifluoromethyl)phenyl]-Lalpha-glutamine], in test [1], the IC50 was 500 to 2000 nM. Still for that read-out and setting: then `CSc1nc(N)nc(SCC(=O)Nc2cc(C(F)(F)F)ccc2N)c1C#N` [Example 62], with 500 to 2000 nM; and `COCCNCCC[C@H](Nc1nc(N)nc(SC)c1C#N)C(=O)Nc1cccc(C(F)(F)F)c1` [Example 144, N~2~-[2-amino-5-cyano-6-(methylthio)pyrimidin-4-yl]-N~5~-[2-(methyloxy)ethyl]-N-[3-(trifluoromethyl)phenyl]-L-omithinamide], with 500 to 2000 nM. Same read-out and setting: the same measure for `CSc1nc(N)nc(N[C@H](C)C(=O)Nc2cccc(C(F)(F)F)c2)c1C#N` [Example 83, N^2-[2-amino-5-cyano-6-(methylthio)pyrimidin-4-yl]-N-[3-(trifluoromethyl)phenyl]-D-alaninamide]: more than 2000 nM; for `CCOc1nc(N)nc(N[C@@H](CCC(=O)OC)C(=O)Nc2cccc(C(F)(F)F)c2)c1C#N` [Example 170, Methyl N~2~-[2-amino-5-cyano-6-(ethyloxy)pyrimidin-4-yl]-N-[3-(trifluoromethyl)phenyl]-L-alpha-glutaminate]: more than 2000 nM. With `CSc1nc(NC(C)=O)nc(N(C(C)=O)[C@@H](CCCNC(C)=O)C(=O)Nc2cccc(C(F)(F)F)c2)c1C#N` [Example 166, N~2~,N~5~-diacetyl-N~2~-[2-(acetylamino)-5-cyano-6-(methylthio)pyrimidin-4-yl]-N-[3-(trifluoromethyl)phenyl]-L-ornithinamide], the IC50 in test [1] is more than 2000 nM. On the same count and under the same terms, the same measure for `C[C@H](Nc1nc(N)nc(O)c1C#N)C(=O)Nc1cccc(C(F)(F)F)c1` [Example 99, N^2-(2-amino-5-cyano-6-hydroxypyrimidin-4-yl)-N-[3-(trifluoromethyl)phenyl]-L-alaninamide]: more than 2000 nM. Same read-out and setting: then `CSc1nc(N)nc(SCc2nc3ccc(C(F)(F)F)cc3[nH]2)c1C#N` [Example 63, 2-amino-4-(methylthio)-6-({[6-(trifluoromethyl)-1H-benzimidazol-2-yl]methyl}thio)pyrimidine-5-carbonitrile], with 500 to 2000 nM. For `CCOc1nc(N)nc(N[C@@H](COC(C)=O)C(=O)Nc2cccc(C(F)(F)F)c2)c1C#N` [Example 164, (2S)-2-{[2-amino-5-cyano-6-(ethyloxy)pyrimidin-4-yl]amino}-3-oxo-3-{[3-(trifluoromethyl)phenyl]amino}propyl acetate], the IC50 in test [1] was more than 2000 nM.

Regarding `COc1nc(N)nc(N[C@@H](CN2CCOCC2)C(=O)Nc2cccc(C(F)(F)F)c2)c1C#N` [Example 192, N~2~-[2-amino-5-cyano-6-(methyloxy)pyrimidin-4-yl]-3-morpholin-4-yl-N-[3-(trifluoromethyl)phenyl]-L-alaninamide], in test [1], the IC50 was more than 2000 nM. Take `CSc1nc(N)nc(N2CCC[C@H]2C(=O)Nc2cccc(C(F)(F)F)c2)c1C#N` [Example 67, (S)-1-[2-amino-5-cyano-6-(methythio)pyrimidin-4-yl]-N-[3-(trifluoromethyl)phenyl]prolinamide]: in test [1], the IC50 lay within 500 to 2000 nM. On to `CCOc1nc(N)nc(N[C@@H](CCCNC(=N)N)C(=O)Nc2cccc(C(F)(F)F)c2)c1C#N` [Example 152, N~2~-[2-amino-5-cyano-6-(ethyloxy)pyrimidin-4-yl]-N-[3-(trifluoromethyl)phenyl]-L-argininamide], for which the IC50 in test [1] is more than 2000 nM. Same read-out and setting: the same measure for `CCOc1nc(N)nc(N[C@@H](COC)C(=O)Nc2cccc(C(F)(F)F)c2)c1C#N` [Example 197, N~2~-[2-amino-5-cyano-6-(ethyloxy)pyrimidin-4-yl]-O-methyl-N-[3-(trifluoromethyl)phenyl]-L-serinamide]: more than 2000 nM; for `CSc1nc(N)nc(N(C)CC(=O)Nc2cccc(C(F)(F)F)c2)c1C#N` [Example 72, N^2-[2-amino-5-cyano-6-(methylthio)pyrimidin-4-yl]-N^2-methyl-N-[3-(trifluoromethyl)phenyl]glycinamide]: more than 2000 nM.
